Key:
[1] = molecular target: T1, HIV-reverse transcriptase (Human immunodeficiency virus type 1 group M subtype B, UniProt P04585); assay: inhibition of HIV-reverse transcriptase; assay type: biochemical; details: ratio of IC50 values
Source text: Another example of a pyrimidine nucleoside analog as a direct acting antiviral is imidine (dImd), a thymidine analog, [17]. […] Its monophosphate (dIMP) readily incorporated into proviral DNA in place of dTMP, preferentially opposite to adenine (A) in the viral RNA template and caused a decrease in the fidelity of replication at the incorporated sites, due to misincorporation.

Molt-4 DNA polymerase a = molecular target: T2, Molt-4 DNA polymerase a (Homo sapiens, UniProt P09884); details: read-out: IC50 for inhibition of Molt-4 DNA polymerase a; cited from earlier work
T2 construct: host or cells: Molt-4

[2] = molecular target: T1, HIV-reverse transcriptase; details: read-out: IC50 for inhibition of HIV-reverse transcriptase; cited from earlier work
human cells in culture = details: cited from earlier work

T2 sequence (P09884 whole entry): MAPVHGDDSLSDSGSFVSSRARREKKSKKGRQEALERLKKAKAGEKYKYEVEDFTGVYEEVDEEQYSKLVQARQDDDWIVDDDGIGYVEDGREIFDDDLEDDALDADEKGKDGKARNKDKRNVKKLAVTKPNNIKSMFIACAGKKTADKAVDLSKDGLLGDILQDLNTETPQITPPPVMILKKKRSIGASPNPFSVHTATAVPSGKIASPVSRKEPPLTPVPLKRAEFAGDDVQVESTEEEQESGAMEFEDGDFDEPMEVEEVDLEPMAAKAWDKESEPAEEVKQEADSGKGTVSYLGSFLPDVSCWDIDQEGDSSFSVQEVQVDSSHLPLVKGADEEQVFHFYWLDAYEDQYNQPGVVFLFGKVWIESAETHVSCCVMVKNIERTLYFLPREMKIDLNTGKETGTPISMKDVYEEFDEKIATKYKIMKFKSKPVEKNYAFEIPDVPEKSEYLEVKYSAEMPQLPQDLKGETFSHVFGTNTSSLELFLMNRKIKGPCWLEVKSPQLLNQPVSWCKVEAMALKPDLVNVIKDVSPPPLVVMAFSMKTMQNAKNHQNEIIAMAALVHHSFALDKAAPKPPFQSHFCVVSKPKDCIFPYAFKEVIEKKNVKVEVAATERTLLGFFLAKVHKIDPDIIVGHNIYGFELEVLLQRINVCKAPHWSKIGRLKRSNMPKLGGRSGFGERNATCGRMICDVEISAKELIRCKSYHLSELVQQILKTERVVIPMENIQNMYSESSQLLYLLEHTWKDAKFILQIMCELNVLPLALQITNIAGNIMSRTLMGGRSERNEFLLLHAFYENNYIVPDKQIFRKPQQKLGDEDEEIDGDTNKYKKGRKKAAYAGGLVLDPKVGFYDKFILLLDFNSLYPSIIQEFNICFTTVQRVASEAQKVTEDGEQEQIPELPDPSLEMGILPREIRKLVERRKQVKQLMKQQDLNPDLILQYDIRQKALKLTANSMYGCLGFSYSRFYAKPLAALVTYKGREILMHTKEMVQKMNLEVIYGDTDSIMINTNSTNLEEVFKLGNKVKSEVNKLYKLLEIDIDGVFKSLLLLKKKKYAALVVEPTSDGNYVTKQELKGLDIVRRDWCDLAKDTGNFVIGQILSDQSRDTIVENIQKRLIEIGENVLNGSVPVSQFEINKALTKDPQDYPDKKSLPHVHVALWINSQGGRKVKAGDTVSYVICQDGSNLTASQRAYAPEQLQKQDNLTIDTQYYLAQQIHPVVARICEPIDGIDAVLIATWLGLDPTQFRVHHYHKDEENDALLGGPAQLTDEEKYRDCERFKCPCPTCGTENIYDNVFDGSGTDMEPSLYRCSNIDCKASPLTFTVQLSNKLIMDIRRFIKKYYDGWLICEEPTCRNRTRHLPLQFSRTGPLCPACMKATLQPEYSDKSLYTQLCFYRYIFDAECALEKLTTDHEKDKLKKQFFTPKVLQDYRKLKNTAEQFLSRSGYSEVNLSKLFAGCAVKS
T2 sequence (Q14181 whole entry partner): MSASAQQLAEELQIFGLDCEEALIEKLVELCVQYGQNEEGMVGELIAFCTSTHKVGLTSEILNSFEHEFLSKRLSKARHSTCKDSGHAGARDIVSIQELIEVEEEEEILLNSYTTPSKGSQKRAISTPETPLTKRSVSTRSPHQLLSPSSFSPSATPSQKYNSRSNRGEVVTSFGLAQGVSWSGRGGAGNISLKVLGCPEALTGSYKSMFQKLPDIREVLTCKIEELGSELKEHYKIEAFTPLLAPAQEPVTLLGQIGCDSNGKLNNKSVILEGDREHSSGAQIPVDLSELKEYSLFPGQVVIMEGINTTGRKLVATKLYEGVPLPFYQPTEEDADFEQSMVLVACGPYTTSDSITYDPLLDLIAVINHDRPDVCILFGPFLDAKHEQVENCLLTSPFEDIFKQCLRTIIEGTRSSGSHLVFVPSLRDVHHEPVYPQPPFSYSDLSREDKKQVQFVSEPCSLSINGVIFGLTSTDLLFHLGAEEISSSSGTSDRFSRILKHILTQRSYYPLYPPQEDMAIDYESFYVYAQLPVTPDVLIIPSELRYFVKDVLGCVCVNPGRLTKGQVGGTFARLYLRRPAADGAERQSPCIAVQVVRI
T2 sequence (P49642 whole entry partner): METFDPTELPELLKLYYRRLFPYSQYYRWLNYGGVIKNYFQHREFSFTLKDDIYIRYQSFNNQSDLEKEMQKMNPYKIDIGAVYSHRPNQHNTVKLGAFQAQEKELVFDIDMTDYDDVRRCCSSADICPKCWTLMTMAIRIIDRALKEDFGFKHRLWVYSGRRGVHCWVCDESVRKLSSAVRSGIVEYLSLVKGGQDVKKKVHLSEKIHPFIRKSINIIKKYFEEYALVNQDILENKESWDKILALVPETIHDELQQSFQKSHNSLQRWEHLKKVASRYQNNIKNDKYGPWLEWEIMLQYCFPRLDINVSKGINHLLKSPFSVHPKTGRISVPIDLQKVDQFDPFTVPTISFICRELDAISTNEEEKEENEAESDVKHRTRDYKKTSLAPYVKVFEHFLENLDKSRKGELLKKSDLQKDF
T2 sequence (P49643 whole entry partner): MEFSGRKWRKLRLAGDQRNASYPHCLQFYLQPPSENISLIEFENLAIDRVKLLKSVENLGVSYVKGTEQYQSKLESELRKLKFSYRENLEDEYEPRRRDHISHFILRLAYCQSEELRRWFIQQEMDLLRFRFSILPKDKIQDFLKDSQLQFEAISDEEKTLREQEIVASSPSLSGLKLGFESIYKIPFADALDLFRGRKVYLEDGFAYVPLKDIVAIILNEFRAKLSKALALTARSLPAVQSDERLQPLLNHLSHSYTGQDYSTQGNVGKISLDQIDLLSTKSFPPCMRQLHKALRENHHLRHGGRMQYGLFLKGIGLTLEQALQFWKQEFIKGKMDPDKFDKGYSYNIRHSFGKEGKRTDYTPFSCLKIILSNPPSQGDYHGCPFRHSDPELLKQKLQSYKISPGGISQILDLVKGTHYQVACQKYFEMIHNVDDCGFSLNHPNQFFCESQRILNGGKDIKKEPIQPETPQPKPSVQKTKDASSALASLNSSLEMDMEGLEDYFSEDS

Compound	selectivity (HIV-reverse transcriptase vs Molt-4 DNA polymerase a) [1]	IC50 (Molt-4 DNA polymerase a)	IC50 [2]	cytotoxicity (human cells in culture)
CC(=O)c1cn(C2CC(O)C(COP(=O)(O)OP(=O)(O)OP(=O)(O)O)O2)c(=O)[nH]1 (stereo not shown) [dImdTP]	> 400 fold	17 µM	0.038 µM	
CC(=O)c1cn([C@H]2C[C@H](O)[C@@H](CO)O2)c(=O)[nH]1 [imidine, 1-(2-deoxy-β-D-ribofuranosyl)-4-acetylimidazolin-2-one]				no cytotoxicity

Reference: patent US11618765B2, “Broad-spectrum antiviral nucleoside derivatives” (priority 2020, dated 2023)
